A melting point compilation (Tetko et al.; mined from patent text by program, amines drawn as free bases though some values may be those of a salt)

melting point [°C]	Structure (SMILES)
265	Cn1c2ccccc2c(=O)n2nc(C(=O)O)cc12
254 to 255	Nc1nc2ccccc2n(-c2ccc(Cl)cc2)c1=O
59 to 62	C=C1CCC2C3CCc4cc(OC)ccc4C3CCC12C (configuration not stated)
258 to 259	N=C(C1=C(O)C(=O)c2ccccc2C1=O)c1ccccc1
289 to 291	Cc1nc2c(-c3ccc(N4CCN(C)CC4)cc3)cnn2c(N)c1-c1ccc(F)cc1
58 to 59	COc1cc(C=O)cc2c1OC(C)(C)C2
106 to 107	Cc1c(-c2ccccc2)cccc1-c1ccc2ccccc2c1
158 to 159	Cc1ccc(N2CCC3CCc4cnccc4C3=N2)cc1 (configuration not stated)
158 to 160	Cc1cc(C2=NN(C(=O)C=CCC(=O)O)C(C)Cc3cc4c(cc32)OCO4)ccc1[N+](=O)[O-] (configuration not stated)
69 to 71	COc1cc2c(c(C(C)C)c1OC)C(=O)N(CSc1nnnn1-c1ccccc1)S2(=O)=O
139	Cc1cc(C)cc(C(=O)N2CCC(N3CCC(=C4c5ccccc5CCn5ccnc54)CC3)CC2Cc2ccccc2)c1 (configuration not stated)
133 to 135	O=C(O)c1c(Cl)ccc([N+](=O)[O-])c1Cl
189 to 191	Nc1cc(C=C2OC(=O)c3ccccc32)ccc1F
193 to 196	COC(=O)c1ccc(CN2C(=O)CCc3c(CC4SC(=O)NC4=O)ccc(OC)c32)cc1 (configuration not stated)
161	Cc1ccc(C)c(OCCCC(C)(C)C(=O)Nc2cccc(C(=O)O)c2)c1
149	Cc1c(NC(=O)c2ccc(OC[C@@H]3CCCO3)cc2F)ccc2c1cc(CNCC1CCOCC1)n2C
174 to 176	CCC(=O)c1cnc2c(OCCO)cccc2c1Nc1ccccc1C
112 to 114	COC(=O)[C@H](CC(C)C)NC(=O)[C@H](NC(=O)OCc1ccccc1)C(C)C
234 to 236	Nc1ncnc2c1c(-c1ccc(Oc3ccccc3)cc1)cn2C1COCC1O (configuration not stated)
167 to 168	O=C(O)[C@H]1CC[C@H](N2CCC(Oc3ccc(Cl)c(Cl)c3)CC2)CC1
109 to 111	CC(=O)OC1C(CO)OC(n2c(=O)sc3cnc(N)nc32)C1OC(C)=O (configuration not stated)
233 to 236	CCOC(=O)N1CCC(n2nnnc2CCC(C)Oc2ccc3nc4[nH]c(=O)[nH]c4cc3c2)CC1 (configuration not stated)
190	CC1CC(=O)Nc2ccc(Br)cc21 (configuration not stated)
84 to 85	CC(C)(C)OC(=O)NNCc1ccc(-c2ccccc2)cc1
69 to 71	Brc1ccc2c(c1)Sc1ccccc1CC2
157	Fc1cccc2c(NCCc3ccc(Oc4cccc(C(F)(F)F)n4)cc3)ccnc12

melting point [°C]	Structure (SMILES)
142 to 143	Cc1ccc(C#N)cc1C#N
80 to 81	CCC#CCCOc1ccc(C=O)cc1OC
285 to 287	CC(=O)c1ccc2c3c1ccn3C(=O)CNC2
90 to 91	CCCc1nc(C(C)(C)O)c(C(=O)OCC)n1Cc1ccc(-c2ccccc2C(=O)OC(C)(C)C)cc1
140	Cc1noc(C)c1-c1ccc(OC2SCC(O)C(O)C2O)c(F)c1 (configuration not stated)
245 to 246	O=C(c1ccc([N+](=O)[O-])cc1)N1CCc2cc(S(=O)(=O)n3cc(-c4ccccc4)[nH]c3=O)ccc21
97 to 99	Cc1ccc2c(NCc3ccc(NC(=O)C4CCN(Cc5ccc(F)c(F)c5)CC4)cc3)nc(N(C)C)nc2c1
297 to 299	COc1cc(C(=O)NS(=O)(=O)c2ccccc2C)ccc1Cn1cc(/C=C/C(=O)N2CCCC2)c2ccc(/C=C/C(=O)N3CCCC3)cc21
264 to 265	NS(=O)(=O)c1cc(C(=O)O)cc(NCc2ccccc2)c1Oc1ccccc1
236 to 238	CCOC(=O)N1CCc2[nH]cc3c(=O)n(-c4ccccc4)nc-3c2C1
110 to 113	CC(C)(C)c1cc(Oc2ccc(N)c(O)c2)ccc1Oc1ccc(N)c(O)c1
78 to 79	CCCOc1ccc(OCCCCC(=O)O)c(C=O)c1O
230	Oc1ccc(C(c2ccc(O)cc2)n2cncn2)cc1
160 to 161	O=C1N[C@H](Cc2ccc(F)cc2)[C@H](c2ccc(C(F)(F)F)cc2)O1 (racemic)
66 to 68	CCCc1c(OCCCCCOc2ccc3c(c2CCC)OC(C(=O)O)CC3)ccc(C(C)=O)c1O (configuration not stated)
150 to 152	CN(Cc1cc2c3c(c1)c(=O)c(C(=O)NCc1ccc(F)cc1)cn3CC(=O)N2C)C[C@@H](O)c1ccco1
238 to 241	CC(C)(CO)NS(=O)(=O)c1cc(NC(=O)c2cnn3c(C4CC4)cc(-c4ccc(Cl)cc4)nc23)c(Cl)s1
119 to 121	C#CCC(Cc1cccnc1)(C(=O)O)S(=O)(=O)c1ccc(OC)cc1 (configuration not stated)
224 to 226	CCOC(=O)c1cn(C2CC2)c2c(OC(F)F)c(F)c(F)cc2c1=O
91	Cc1ccc2oc(Cc3nc4cc(C)ccc4o3)nc2c1
149 to 151	COc1nc2ccccn2c(=O)c1-c1ccc(Cl)cc1
86 to 88	CCCCCCC(=N)NC(=S)Nc1ccc(Br)cc1Br
132 to 134	CC(=NOCCO)c1ccc(-c2ccc3c(c2)OCO3)cc1
148 to 149	CCN(CC)c1cc(-c2ccccc2)nc2nn(-c3ccccc3)cc12
48.5 to 49	CCOC(=O)c1ccc2ccccc2c1O
164 to 166	COc1cc(CC#Cc2c(C)nc(N)nc2N)cc(OC)c1OC

Second part, the compound before the results:

Structure (SMILES)	melting point [°C]
CCCCCCCCCC[C@@H]1C(=O)OC(c2ccccc2)=C[C@@H]1C(=O)OC	108 to 111
C[C@@H](N1CCN(c2ccc(OCC(F)(F)C(F)(F)F)cc2)C1=O)[C@@]1(c2ccc(F)cc2F)CO1	141 to 144
FC(F)(Cc1c[nH]c2ccc(-n3cnnc3)cc12)CN1CCC(OCc2ccccc2)CC1	170
Cc1nc(-n2cc(-c3cccnc3)nn2)sc1C(=O)NCc1ccccc1	117 to 119
CCOC(=O)c1c(C)nc(S)c([N+](=O)[O-])c1NCCCN(C)C	131 to 132
Cc1cccc(NC(=O)c2ccccc2CN2C(=O)C3(COc4cc5c(cc43)CCO5)c3ccccc32)c1C (configuration not stated)	> 230
CC1(C)CCC(C)(C)c2cc(N(Cc3cccs3)C(=O)Nc3ccc(C(=O)O)cc3)ccc21	167 to 170
c1ccc2cc(OCc3ccc4ccccc4n3)ccc2c1	100 to 102
Cc1ccc2nc(-c3ccc(-c4ccccc4)cc3)c(O)c(C(=O)O)c2c1	236 to 238
CCCCCCCCCCCCCCCCCCOc1cccc(N(CC(=O)OC)CC(=O)OC)c1	75 to 77
O=[N+]([O-])c1cc(Cl)c(I)c(Cl)c1	147 to 150
N#Cc1ccc2c(c1)S(=O)(=O)c1ccc(N)cc1C=C2	321 to 324
CCOC(=O)/C=C/c1ccc(OCC(C)=O)cc1Oc1ncc(C(F)(F)F)cc1Cl	167 to 168
Cc1ccccc1NC(=O)Nc1ccc(-c2c(Cc3ccccc3)sc3ncnc(N)c23)cc1	245 to 248
CCOC(=O)C1=CC(C2CC2)c2nc3cc(F)c(F)cc3nc2C1=O (configuration not stated)	230
CC(=NNC(N)=O)c1ccc(NS(C)(=O)=O)c(Oc2ccc(F)cc2F)c1	187 to 189
Cc1cccc2c(=O)n(S(=O)(=O)c3ccc(Cl)cc3)c(=O)[nH]c12	221 to 225
N#CNC(=N)CCN1CCOC1=O	137 to 139
CN(C)N1C(=O)C(Cc2ccncc2)(Cc2ccncc2)c2ccccc21	190 to 193
Cc1c(N2C[C@H](C)[C@H](NC(=O)C(F)(F)F)C2)c(F)c(N)c2c(=O)c(C(=O)O)cn(C3CC3)c12 (relative stereo)	253 to 254
CC(C)c1ccc2nc3ccc(C(=O)NCCc4cccnc4)cn3c(=O)c2c1	283 to 292
COc1cc2cnc(Cl)nc2cc1OC	237 to 238
O=C(NCCN1CCC2(CC1)C(=O)NCN2c1ccccc1)c1ccc(Cl)cc1	201

Structure (SMILES)	melting point [°C]
CCOCc1nc2c(N)nc3c(c2n1NC(C)C)CCCC3	144 to 146
Cc1cc(C)c(C(=O)P(=O)(Cc2ccccc2)c2ccccc2)c(C)c1 (configuration not stated)	113 to 114
CN(C)C(=O)Cc1nc(-c2ccccc2)nc2c1c1ccc(Cl)cc1n2C	185 to 187
O=C(O)c1cn(C2CC2)c2cc(N3CCNCC3)c(F)c(F)c2c1=O	> 300
O=C1CCCN1C(=O)NCCCN1CC=C(c2ccc(Cl)c(Cl)c2)CC1	136
O=C(CC(O)c1ccccc1)NCc1ccccc1[N+](=O)[O-] (configuration not stated)	145
CC(C)(C)[S@](=O)N1CCC[C@@H]1c1ccc(Br)cc1	100 to 112
Cc1cc(C)c2nc(CO)[nH]c2n1	244 to 246
CC(C)=NOCc1nc2c(N)nc3cccnc3c2n1CC(C)C	173 to 175
COC(=N)c1nn(-c2c(Cl)cc(C(F)(F)F)cc2Cl)c(N)c1S(C)=O (configuration not stated)	179 to 180
CC(C)c1cccc(-c2c(Cl)ccc3c2C=C(C(=O)O)C(C(F)(F)F)O3)c1 (configuration not stated)	184 to 186
CC1(C)SC(c2ccccc2O)NC1C(=O)O (configuration not stated)	179 to 181
CCCCNC(=O)[C@@H](C[C@H](O)[C@H](CC1CCCCC1)NC(=O)[C@H](Cc1cscn1)NC(=O)[C@@H](CC(=O)N1CCOCC1)Cc1ccccc1)C(C)(C)O	92 to 95
COC(=O)CC(=O)c1ccc2c(c1)CCC(=O)N2C	175 to 176
CN(C)C(=O)C1(N2C(=O)c3cccc(Cl)c3C2=O)CCCCC1	135 to 137
CS(=O)(=O)c1ccc(C(CC2CCCC2)C(=O)Nc2ccccn2)cc1S(C)(=O)=O (configuration not stated)	107 to 110
Cc1nccn1-c1ccc(COc2cc(F)cc(C3(C(N)=S)CCOCC3)c2)cc1	167 to 170
CCOC(=O)c1c(Nc2ccccc2SC)n[nH]c1C	135 to 158
O=C(O)CCC(=O)c1ccc(CCNS(=O)(=O)c2ccc(Cl)cc2)cc1	152
O=[N+]([O-])C1(F)C=C(OCC2CCCSC2)C(Cl)=CC1 (configuration not stated)	100 to 103
S=c1c2cccnc2c(-c2cccc(Cl)c2)nn1Cc1ccccc1	132
Nc1nc2ccc3ccc(CNc4ccc([N+](=O)[O-])cc4)cc3c2c(=O)[nH]1	> 230
